These results are taken from patent US6596309B2, “Stable pharmaceutical dosage form for paroxetin anhydrate” (BASF Aktiengesellschaft, priority 1999, dated 2003).

This data set can be described thus: Check for conversion of the anhydrate to the hemihydrate in soft gelatin capsules (infrared spectroscopy or DSC). The data set is classed as physicochemical. The conditions noted are these: paroxetin anhydrate incorporated into soft gelatin capsules; lipophilic carrier silicone oil. An excerpt: The incorporation of paroxetin anhydrate into soft gelatin capsules was surprising because soft gelatin contains very large amounts of water during the encapsulation process. […] However, the use of glycerol in the preparation of the capsule coat should be avoided.
A test for absence of the hemihydrate can be performed very simply by infrared spectroscopy or differential scanning calorimetry (DSC), as described by P.C. Baxter et al. in the International Journal of Pharmaceutics, 42 (1988), pages 135 to 143.

As to `Fc1ccc([C@@H]2CCNC[C@H]2COc2ccc3c(c2)OCO3)cc1` (relative stereo) [paroxetin anhydrate, (—)-trans-4-(4′-fluorophenyl)-3-(3′,4′-methylenedioxyphenoxymethyl)-piperidine], the “conversion to the hemihydrate” value is given as “did not occur”.
